“Also recorded” adds a separate entry of the source.
Test system: mouse model of human alcoholic hepatitis
Assay: AH mouse model (chronic and binge ethanol feeding plus LPS), dose-response study
Format: in vivo
Conditions: for effect on body weight: 10, 30 and 50 mg/kg/day oral gavage, male and female mice
Source text: Mouse model generation and treatment. The AH mouse model was generated as described in Shah et al. through chronic and binge ethanol feeding plus lipopolysaccharides (LPS) administration to provide a second hit to increase liver damage (Shah R et al., Oxid Med Cell Longev, (2018), 2018:9630175; Lamas-Paz A et al., World J Gastroenterol, (2018), 24:5063-75). This model is easy to implement and recapitulates the major features of human AH including marked ALT elevation, liver steatosis, and fibrosis (O'Beirne J., Dig Dis Sci., (2020), 65:920-1). A total of 60 mice, were used at a 50:50 male/female ratio to provide a comprehensive representation applicable in treating the general population. C57BL6 mice (6-8-week-old) were fed Lieber-DeCarli '82 rodent liquid diet (LDC) ad libitum for 5 days to acclimatize them to tube feeding. On day 6, mice were treated according to Table 1. Ethanol-fed groups were allowed free access to LDC diet containing 5% (vol/vol) ethanol for 11 days, and control groups were pair-fed with the LDC diet only. Indeglitazar was administered by oral gavage starting from day 6. On day 12, mice were given a single dose of 5 g/kg/bw of EtOH by oral gavage, and LPS (2 mg/kg/bw) by intraperitoneal injection (IP), pair-fed mice were fed isocaloric maltose dextrin and all mice were euthanized 6 h later.
Analysis and tests: Mice were treated for 11 days; body weights were measured before and during administration. Plasma was analyzed for ALT, AST, and GGT. A full necropsy was performed at the end-point together with liver histology to assess steatosis, and inflammatory infiltrates. Briefly, liver tissue was fixed in 10% neutral buffered formalin and paraffin-embedded, sectioned into […] thickness, and stained with hematoxylin-eosin (H&E) and Oil-Red O staining for evaluation of histopathological changes. Stained liver slices were analyzed under a bright-field microscope using the histological scoring system for nonalcoholic fatty liver disease (Kleiner D L et al., Hepatology, (2005), 41:1313-21). The remaining liver tissue was analyzed for liver triglycerides and cholesterol levels by biochemical assays.
The AH mouse model was generated as described in Shah et al. through chronic and binge ethanol (EtOH) feeding plus lipopolysaccharide (LPS) administration, to provide a second insult, to increase liver damage (Bertola A et al., Nat Protoc, (2013), 8:627-637; Takahashi Y et al., (2017), 313-339; Shah R et al., Oxid Med Cell Longev, (2018), 2018:9630175). This model recapitulates the major features of human AH, including marked ALT and AST elevation, liver steatosis, and fibrosis (Lucey M R et al., N Engl J Med., (2009), 360:2758-2769). For a dose-response study, a total of 60 (12 per group, 50:50 male/female ratio) C57BL6 mice (6-8-weeks old) were fed Lieber-DeCarli '82 rodent liquid diet (LDC) ad libitum, for 5 days, to acclimatize them to tube feeding. On days 6-11, mice were fed the LCD diet plus ethanol (5% vol:vol), and treated with indeglitazar (10 mg/kg, 30 mg/kg, or 50 mg/kg, oral gavage). On day 12, mice were given a single dose of EtOH (5 g/kg/body weight) by oral gavage and LPS (2 mg/kg/body weight) by ip injection; pair-fed mice were fed isocaloric maltose dextrin and all mice were euthanized 6 h later.

In the case of `COc1ccc(S(=O)(=O)n2cc(CCC(=O)O)c3cc(OC)ccc32)cc1` [Indeglitazar, 3-[5-methoxy-1-(4-methoxybenzenesulfonyl)-1H-indol-3-yl]-propanoic acid], the “effect on liver triglycerides” value (50 mg/kg, vs vehicle+EtOH) is reported as “significantly reduced”, the “reduction of ALT activity” value (50 mg/kg, vs vehicle+EtOH, P<0.0001) is reported as 60% and the “reduction of AST” value (50 mg/kg, vs vehicle+EtOH, P<0.004) is reported as 49%. The “reduction of liver TG” value (50 mg/kg, vs vehicle+EtOH, P<0.03) was 35%, the “effect on liver total cholesterol” value (10, 30, 50 mg/kg/day) was “no significant effect” and the “effect on food intake” value (10, 30 and 50 mg/kg oral gavage, vs EtOH-treated vehicle control) was “Neither EtOH (vs no EtOH vehicle control) or indeglitazar had a significant effect”. The “effect on body weight” value (vs ethanol-treated vehicle control) was “no significant effect”, the “effect on body weight” value (vs ethanol-treated vehicle control, listed as indeglitazar) was “Neither EtOH (vs no EtOH vehicle control) or indeglitazar had a significant effect; also recorded: no significant effect” and the “effect on AST” value (10 and 50 mg/kg, vs ethanol-treated vehicle control) was “significant decreases”. For the same molecule, the “effect on ALT” value (all three doses (10, 30, 50 mg/kg), vs ethanol-treated vehicle control) was “significant decrease”.

From patent publication US12485106B2, “Methods of treating fibrotic liver diseases or conditions with indeglitazar” (PLEIOGENIX INC., priority 2023, dated 2025)
